# Earlier results as cited in patent publication US20100285127A1, “TASTE MASKED PHARMACEUTICAL COMPOSITIONS OF S-ALKYLISOTHIOURONIUM DERIVATIVES” (priority 2007, published 2010).
# Conditions: Zherebchenko 1968; Goloschapova 1981
substance,measurement,value
S-ethylisothiouronium diethylphosphate [Difetur],radioprotective effects,radioprotective effects
